Source: patent US8192962B2, “Processes for detecting toxic substances” (Daikin Industries, Ltd., priority 2001, dated 2012)

System: Unknown protein yeast genes
Assay: DNA chip mRNA expression in yeast, unknown protein yeast genes (Table 1)
Assay type: cell-based, Saccharomyces cerevisiae S288C
Outline: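 First, S288C yeast grown in YPD at 25° C. are dosed in log phase with one toxicant (growth-inhibiting, not lethal) for 2 h. Next, total RNA is extracted and poly(A) mRNA isolated and reverse-transcribed with Cy3/Cy5-dUTP. Finally, whole-genome chip fluorescence is read relative to unexposed cells.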

[Cl][Cd][Cl] [(2), CdCl2] was tested, and the “The level of expressed mRNA in the presence of chemical substance/The level of expressed mRNA in the absence of chemical substance” value (yeast gene YAL053W, incubated two hours with chemical substance) was 0.9, the “The level of expressed mRNA in the presence of chemical substance/The level of expressed mRNA in the absence of chemical substance” value (yeast gene YBL048W) was 7.9 and the “The level of expressed mRNA in the presence of chemical substance/The level of expressed mRNA in the absence of chemical substance” value (yeast gene YBL107C) was 1.1. The “The level of expressed mRNA in the presence of chemical substance/The level of expressed mRNA in the absence of chemical substance” value (yeast gene YDL072C, incubated two hours with chemical substance) was 1.1, the “The level of expressed mRNA in the presence of chemical substance/The level of expressed mRNA in the absence of chemical substance” value (yeast gene YDL204W, incubated two hours with chemical substance) was 1.9 and the “The level of expressed mRNA in the presence of chemical substance/The level of expressed mRNA in the absence of chemical substance” value (yeast gene YDL222C, incubated two hours with chemical substance) was 1.1. The “The level of expressed mRNA in the presence of chemical substance/The level of expressed mRNA in the absence of chemical substance” value (yeast gene YDR330W, incubated two hours with chemical substance) was 1.5, the “The level of expressed mRNA in the presence of chemical substance/The level of expressed mRNA in the absence of chemical substance” value (yeast gene YDR411C, incubated two hours with chemical substance) was 2.8 and the “The level of expressed mRNA in the presence of chemical substance/The level of expressed mRNA in the absence of chemical substance” value (yeast gene YDR511W, incubated two hours with chemical substance) was 1.7. The “The level of expressed mRNA in the presence of chemical substance/The level of expressed mRNA in the absence of chemical substance” value (yeast gene YDR545W, incubated two hours with chemical substance) was 1.2, the “The level of expressed mRNA in the presence of chemical substance/The level of expressed mRNA in the absence of chemical substance” value (yeast gene YEL001C, incubated two hours with chemical substance) was 1.0 and the “The level of expressed mRNA in the presence of chemical substance/The level of expressed mRNA in the absence of chemical substance” value (yeast gene YER004W, incubated two hours with chemical substance) was 1.5. For the same compound, the “The level of expressed mRNA in the presence of chemical substance/The level of expressed mRNA in the absence of chemical substance” value (yeast gene YER035W, incubated two hours with chemical substance) was 1.6, the “The level of expressed mRNA in the presence of chemical substance/The level of expressed mRNA in the absence of chemical substance” value (yeast gene YER079W, incubated two hours with chemical substance) was 1.6 and the “The level of expressed mRNA in the presence of chemical substance/The level of expressed mRNA in the absence of chemical substance” value (yeast gene YER106W, incubated two hours with chemical substance) was 0.7. For the same compound, the “The level of expressed mRNA in the presence of chemical substance/The level of expressed mRNA in the absence of chemical substance” value (yeast gene YER158C, incubated two hours with chemical substance) was 0.9, the “The level of expressed mRNA in the presence of chemical substance/The level of expressed mRNA in the absence of chemical substance” value (yeast gene YER163C, incubated two hours with chemical substance) was 2.4 and the “The level of expressed mRNA in the presence of chemical substance/The level of expressed mRNA in the absence of chemical substance” value (yeast gene YER175C, incubated two hours with chemical substance) was 1.2. For the same compound, the “The level of expressed mRNA in the presence of chemical substance/The level of expressed mRNA in the absence of chemical substance” value (yeast gene YFL006W, incubated two hours with chemical substance) was 2.8, the “The level of expressed mRNA in the presence of chemical substance/The level of expressed mRNA in the absence of chemical substance” value (yeast gene YFL010C, incubated two hours with chemical substance) was 4.8 and the “The level of expressed mRNA in the presence of chemical substance/The level of expressed mRNA in the absence of chemical substance” value (yeast gene YFL024C) was 1.1. For the same compound, the “The level of expressed mRNA in the presence of chemical substance/The level of expressed mRNA in the absence of chemical substance” value (yeast gene YFL032W, incubated two hours with chemical substance) was 1.5, the “The level of expressed mRNA in the presence of chemical substance/The level of expressed mRNA in the absence of chemical substance” value (yeast gene YGL037C, incubated two hours with chemical substance) was 2.7 and the “The level of expressed mRNA in the presence of chemical substance/The level of expressed mRNA in the absence of chemical substance” value (yeast gene YGL047W, incubated two hours with chemical substance) was 1.9. For the same compound, the “The level of expressed mRNA in the presence of chemical substance/The level of expressed mRNA in the absence of chemical substance” value (yeast gene YGL053W, incubated two hours with chemical substance) was 1.5, the “The level of expressed mRNA in the presence of chemical substance/The level of expressed mRNA in the absence of chemical substance” value (yeast gene YGL121C) was 5.0 and the “The level of expressed mRNA in the presence of chemical substance/The level of expressed mRNA in the absence of chemical substance” value (yeast gene YGL199C, incubated two hours with chemical substance) was 1.7. For the same compound, the “The level of expressed mRNA in the presence of chemical substance/The level of expressed mRNA in the absence of chemical substance” value (yeast gene YGR101W, incubated two hours with chemical substance) was 1.3, the “The level of expressed mRNA in the presence of chemical substance/The level of expressed mRNA in the absence of chemical substance” value (yeast gene YGR110W) was 3.1 and the “The level of expressed mRNA in the presence of chemical substance/The level of expressed mRNA in the absence of chemical substance” value (yeast gene YGR130C, incubated two hours with chemical substance) was 0.7. The “The level of expressed mRNA in the presence of chemical substance/The level of expressed mRNA in the absence of chemical substance” value (yeast gene YGR154C, incubated two hours with chemical substance) was 2.9, the “The level of expressed mRNA in the presence of chemical substance/The level of expressed mRNA in the absence of chemical substance” value (yeast gene YGR221C, incubated two hours with chemical substance) was 2.2 and the “The level of expressed mRNA in the presence of chemical substance/The level of expressed mRNA in the absence of chemical substance” value (yeast gene YHR138C, incubated two hours with chemical substance) was 1.8. For the same compound, the “The level of expressed mRNA in the presence of chemical substance/The level of expressed mRNA in the absence of chemical substance” value (yeast gene YHR199C, incubated two hours with chemical substance) was 2.0, the “The level of expressed mRNA in the presence of chemical substance/The level of expressed mRNA in the absence of chemical substance” value (yeast gene YIL023C, incubated two hours with chemical substance) was 1.2 and the “The level of expressed mRNA in the presence of chemical substance/The level of expressed mRNA in the absence of chemical substance” value (yeast gene YIL041W, incubated two hours with chemical substance) was 1.2. The “The level of expressed mRNA in the presence of chemical substance/The level of expressed mRNA in the absence of chemical substance” value (yeast gene YIL087C, incubated two hours with chemical substance) was 1.9, the “The level of expressed mRNA in the presence of chemical substance/The level of expressed mRNA in the absence of chemical substance” value (yeast gene YJL057C, incubated two hours with chemical substance) was 1.2 and the “The level of expressed mRNA in the presence of chemical substance/The level of expressed mRNA in the absence of chemical substance” value (yeast gene YJL066C, incubated two hours with chemical substance) was 1.2. For the same compound, the “The level of expressed mRNA in the presence of chemical substance/The level of expressed mRNA in the absence of chemical substance” value (yeast gene YJL082W, incubated two hours with chemical substance) was 0.8, the “The level of expressed mRNA in the presence of chemical substance/The level of expressed mRNA in the absence of chemical substance” value (yeast gene YJL151C, incubated two hours with chemical substance) was 2.4 and the “The level of expressed mRNA in the presence of chemical substance/The level of expressed mRNA in the absence of chemical substance” value (yeast gene YJL152W, incubated two hours with chemical substance) was 1.5. The “The level of expressed mRNA in the presence of chemical substance/The level of expressed mRNA in the absence of chemical substance” value (yeast gene YJL161W, incubated two hours with chemical substance) was 2.2, the “The level of expressed mRNA in the presence of chemical substance/The level of expressed mRNA in the absence of chemical substance” value (yeast gene YJL171C, incubated two hours with chemical substance) was 0.7 and the “The level of expressed mRNA in the presence of chemical substance/The level of expressed mRNA in the absence of chemical substance” value (yeast gene YJR008W, incubated two hours with chemical substance) was 1.5. For the same compound, the “The level of expressed mRNA in the presence of chemical substance/The level of expressed mRNA in the absence of chemical substance” value (yeast gene YJR054W, incubated two hours with chemical substance) was 0.9, the “The level of expressed mRNA in the presence of chemical substance/The level of expressed mRNA in the absence of chemical substance” value (yeast gene YKL071W) was 3.8 and the “The level of expressed mRNA in the presence of chemical substance/The level of expressed mRNA in the absence of chemical substance” value (yeast gene YKL086W, incubated two hours with chemical substance) was 1.1. For the same compound, the “The level of expressed mRNA in the presence of chemical substance/The level of expressed mRNA in the absence of chemical substance” value (yeast gene YKL151C, incubated two hours with chemical substance) was 3.1 and the “The level of expressed mRNA in the presence of chemical substance/The level of expressed mRNA in the absence of chemical substance” value (yeast gene YKL153W, incubated two hours with chemical substance) was 1.4.
